The text below walks through data of patent publication US9469642B2, “Purinone compounds as kinase inhibitors” (Pharmacyclics LLC, priority 2012, dated 2016).

Assay type in all cases: biochemical
One assay has as its target LCK (Homo sapiens, UniProt P06239). The assay can be described thus: Kinase panel inhibition, LCK (one of the methods of Example 76a, 76b, 76c). An outline of the steps:
(§1)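 BTK (0.5 nM) and LCK (6 nM) by TR-FRET, ATP at Km, biotinylated peptide, pH 7.4, 1 h; Ki(app) converted to IC50. Alternatively, full-length His6-BTK (1 nM) by mobility shift, 16 μM ATP (Km), 1 μM FAM peptide, pH 7.5, 1 h; IC50 from 12-point 4-parameter fit. Radiometric filter-binding option also used.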

The target of the next assay is EGFR (Homo sapiens, UniProt P00533). Nature of the assay: Kinase panel inhibition, EGFR (one of the methods of Example 76a, 76b, 76c). An outline of the steps: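 Kinase activity was measured by TR-FRET in 50 μL reactions in 96-well plates. Enzyme, inhibitor, ATP at its Km and a biotinylated peptide substrate were incubated for one hour at pH 7.4 in buffer containing 20 mM Tris, 50 mM NaCl, MgCl2, MnCl2, 1 mM DTT, 0.1 mM EDTA, 0.01% bovine serum albumin, 0.005% Tween-20 and 10% DMSO. Reactions were stopped with EDTA in Lance buffer. Streptavidin-APC and Eu-labeled p-Tyr100 antibody were added for one hour. The 665/615 nm emission ratio gave activity. IC50 was derived from Ki(app) fitted with BatchKi.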

For another assay, the target named is T1, BTK (Homo sapiens, UniProt Q06187).
T1 construct: purified from insect cells as a full-length construct containing a N-terminal 6×-His tag; His6 (N); host or cells: insect cells (baculovirus Sf21)
Nature of the assay: Btk in vitro inhibitory activity (kinase assay by one of Methods A, B or C). An outline of the steps:
as §1

EGFR, sequence (P00533 25-1210, species assumed): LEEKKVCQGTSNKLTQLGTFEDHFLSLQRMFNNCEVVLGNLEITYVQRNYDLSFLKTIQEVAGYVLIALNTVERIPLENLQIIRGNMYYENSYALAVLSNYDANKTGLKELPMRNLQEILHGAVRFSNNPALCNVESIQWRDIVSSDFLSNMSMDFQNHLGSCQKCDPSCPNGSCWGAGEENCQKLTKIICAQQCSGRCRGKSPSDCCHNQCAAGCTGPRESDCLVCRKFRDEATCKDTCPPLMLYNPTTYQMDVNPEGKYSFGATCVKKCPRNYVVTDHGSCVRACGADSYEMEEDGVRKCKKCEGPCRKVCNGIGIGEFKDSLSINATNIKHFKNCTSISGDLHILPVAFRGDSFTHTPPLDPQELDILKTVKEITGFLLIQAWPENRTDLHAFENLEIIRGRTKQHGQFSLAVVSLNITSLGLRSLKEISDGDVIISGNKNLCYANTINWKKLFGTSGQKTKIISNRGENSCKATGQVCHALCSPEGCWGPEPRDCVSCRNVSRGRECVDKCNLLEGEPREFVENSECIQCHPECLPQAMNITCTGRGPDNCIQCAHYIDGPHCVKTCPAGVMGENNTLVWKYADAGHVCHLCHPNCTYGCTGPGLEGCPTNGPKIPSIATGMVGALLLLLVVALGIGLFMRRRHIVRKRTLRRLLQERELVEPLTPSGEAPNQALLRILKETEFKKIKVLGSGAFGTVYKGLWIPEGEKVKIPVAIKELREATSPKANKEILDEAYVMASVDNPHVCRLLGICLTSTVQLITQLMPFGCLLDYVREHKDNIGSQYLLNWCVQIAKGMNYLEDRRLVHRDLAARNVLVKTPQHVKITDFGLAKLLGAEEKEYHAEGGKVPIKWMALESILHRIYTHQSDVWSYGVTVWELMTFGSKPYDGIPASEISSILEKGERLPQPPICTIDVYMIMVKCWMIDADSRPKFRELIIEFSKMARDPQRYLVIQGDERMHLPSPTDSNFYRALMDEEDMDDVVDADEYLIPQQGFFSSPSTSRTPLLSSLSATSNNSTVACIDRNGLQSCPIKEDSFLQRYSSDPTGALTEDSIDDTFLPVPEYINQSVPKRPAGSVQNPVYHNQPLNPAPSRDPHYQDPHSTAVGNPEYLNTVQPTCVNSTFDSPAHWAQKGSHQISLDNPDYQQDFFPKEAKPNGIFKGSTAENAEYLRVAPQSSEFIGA
LCK, sequence (P06239 whole entry, species assumed): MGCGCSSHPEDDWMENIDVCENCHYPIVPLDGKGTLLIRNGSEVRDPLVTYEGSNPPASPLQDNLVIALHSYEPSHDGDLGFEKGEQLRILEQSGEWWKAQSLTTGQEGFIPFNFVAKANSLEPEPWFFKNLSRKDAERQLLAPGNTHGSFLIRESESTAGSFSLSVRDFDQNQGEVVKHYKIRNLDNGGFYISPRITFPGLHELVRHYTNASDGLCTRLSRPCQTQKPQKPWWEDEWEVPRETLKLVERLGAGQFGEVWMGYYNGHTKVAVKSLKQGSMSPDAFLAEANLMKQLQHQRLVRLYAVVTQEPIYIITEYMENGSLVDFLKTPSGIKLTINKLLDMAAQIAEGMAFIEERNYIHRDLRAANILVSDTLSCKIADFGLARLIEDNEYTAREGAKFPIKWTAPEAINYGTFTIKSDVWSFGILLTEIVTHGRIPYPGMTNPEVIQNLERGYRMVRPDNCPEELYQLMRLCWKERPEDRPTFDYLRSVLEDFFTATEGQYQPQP
T1 sequence (Q06187 whole entry): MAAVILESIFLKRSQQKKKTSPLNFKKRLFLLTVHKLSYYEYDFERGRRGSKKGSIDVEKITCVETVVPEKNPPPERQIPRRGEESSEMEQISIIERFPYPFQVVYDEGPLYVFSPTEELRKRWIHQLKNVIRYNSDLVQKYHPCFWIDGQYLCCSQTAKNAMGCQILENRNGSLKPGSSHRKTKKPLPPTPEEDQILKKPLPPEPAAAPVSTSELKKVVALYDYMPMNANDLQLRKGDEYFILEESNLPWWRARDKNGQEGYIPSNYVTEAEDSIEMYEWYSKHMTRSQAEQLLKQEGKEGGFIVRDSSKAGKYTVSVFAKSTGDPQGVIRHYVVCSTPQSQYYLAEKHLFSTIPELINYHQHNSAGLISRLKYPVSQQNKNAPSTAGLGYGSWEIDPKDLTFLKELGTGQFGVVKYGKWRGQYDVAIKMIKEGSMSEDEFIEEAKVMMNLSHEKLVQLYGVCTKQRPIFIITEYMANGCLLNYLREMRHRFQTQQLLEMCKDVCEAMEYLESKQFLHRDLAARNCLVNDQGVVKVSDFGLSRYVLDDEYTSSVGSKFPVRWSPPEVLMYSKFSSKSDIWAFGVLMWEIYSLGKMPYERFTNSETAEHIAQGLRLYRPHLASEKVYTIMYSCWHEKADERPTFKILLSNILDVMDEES

The IC50 is the concentration at which inhibition is half-maximal. The low end stands for inhibition by little substance, the high end for a need for much substance. For the molecule `N#C/C(=C\C1CC1)C(=O)N1CCC[C@@H](n2c(=O)n(-c3ccc(Oc4ccccc4)cc3)c3c(N)ncnc32)C1` [Compound 324, (R,E)-2-(3-(6-amino-8-oxo-7-(4-phenoxyphenyl)-7H-purin-9(8H)-yl)piperidine-1-carbonyl)-3-cyclopropylacrylonitrile], the IC50 against LCK is 100 to 1000 nM; at EGFR, 100 to 1000 nM; at BTK, under 100 nM.

For the molecule `CN(C(=O)/C(C#N)=C/C1CC1)c1cccc(-n2c(=O)n(-c3ccc(Oc4ccccc4)cc3)c3c(N)ncnc32)c1` [Compound 325, (E)-N-(3-(6-amino-8-oxo-7-(4-phenoxyphenyl)-7H-purin-9(8H)-yl)phenyl)-2-cyano-3-cyclopropyl-N-methylacrylamide], the IC50 is 100 to 1000 nM on LCK, 100 to 1000 nM against EGFR and under 100 nM against BTK.

Take `CN(C(=O)/C=C/c1cn(C)cn1)c1cccc(-n2c(=O)n(-c3ccc(Oc4ccccc4)cc3)c3c(N)ncnc32)c1` [Compound 327, (E)-N-(3-(6-amino-8-oxo-7-(4-phenoxyphenyl)-7H-purin-9(8H)-yl)phenyl)-N-methyl-3-(1-methyl-1H-imidazol-4-yl)acrylamide]: the IC50 against LCK lay in the range of 1000 to 10000 nM; at EGFR, 1000 to 10000 nM; against BTK, 100 to 1000 nM.

As for `CN(C)C/C=C/C(=O)N(C)[C@H]1CC[C@@H](n2c(=O)n(-c3ccc(Oc4ccccc4)cc3)c3c(N)ncnc32)CC1` [Compound 328, (E)-N-((1s,4s)-4-(6-amino-8-oxo-7-(4-phenoxyphenyl)-7H-purin-9(8H)-yl)cyclohexyl)-4-(dimethylamino)-N-methylbut-2-enamide], the IC50 against LCK, against EGFR and against BTK was under 100 nM each time.

On to `CNC/C=C/C(=O)Nc1cccc(-n2c(=O)n(-c3ccc(Oc4ccccc4)cc3)c3c(N)ncnc32)c1` [Compound 329, (E)-N-(3-(6-amino-8-oxo-7-(4-phenoxyphenyl)-7H-purin-9(8H)-yl)phenyl)-4-(methylamino)but-2-enamide], for which the IC50 was 100 to 1000 nM at LCK, under 100 nM against EGFR and under 100 nM on BTK.
